Tests used:
ABCA1 = assay: Expression of the ABCA1 transporter (real-time PCR) in endothelial cells treated with cyclodextrins; type: cell-based, bovine; conditions: 1 mM cyclodextrin, 24 hours, ABAEs, compared with control, FIG. 3
Protocol: (§1) Cells: The endothelial cells were adult bovine aortic endothelial cells (ABAEs).
(§2) The cells were then cultured in this radioactive medium for 36 hours in order to allow them to incorporate the radioactive cholesterol. The medium was then removed and the cells were rinsed twice with warm DMEM containing 0.1% of bovine serum albumin (BSA). The cells were then cultured in DMEM/1 ng/ml bFGF containing 1 mM of each cyclodextrin for 24 hours (1.4 ml/well).
(§3) After 24 hours of treatment with each cyclodextrin, the cells were rinsed twice in cold PBS (8 g/l NaCl, 0.2 g/l KCl, 0.2 g/l KH2PO4, 2.87 g/l NA2HPO4 (12H2O), pH 7.4) and lyzed using 500 μl of RLT lysis buffer […]. Three wells were used and pooled for each condition. […] At the end of this purification step, the mRNA concentration was estimated by virtue of the absorbance values obtained at 260, 280 and 320 nm. […]
(§4) The amplification was carried out over the course of 40 cycles with a hybridization temperature of 60° C. using the Biorad CFX96 thermocycler. For each pair of primers, the amplification specificity was verified by producing melting curves and the efficiency was determined by producing dilution curves. The expression levels measured were then normalized on the expression levels of β-actin and cyclophillin B using the ΔΔCt method. […]

[1] = test system: adult bovine aortic endothelial cells (ABAEs); assay: Cholesterol efflux: 3H-cholesterol captured by the cyclodextrins from aortic endothelial cells; type: cell-based; conditions: 1 mM cyclodextrin, 2 hours, FIG. 2
Excerpt: as §1
Cyclodextrins: the cyclodextrins used were the following: a non-methylated β-cyclodextrin, hereinafter denoted “β-CD”, a methyl-β-cyclodextrin having an MS of 0.2, hereinafter denoted “MβCD-0.2”, a methyl-β-cyclodextrin having an MS of 0.67 (KLEPTOSE® CRYSMEB, ROQUETTE FRERES), hereinafter denoted “MβCD-0.67”, a methyl-β-cyclodextrin having an MS of 1.8 (RAMEB®, CYCLOLAB), hereinafter denoted “MβCD-1.8”.
0.5 μCi/ml of 3H-cholesterol was incorporated into serum (10% horse serum/calf serum (HS/CS)) for 6 hours at 37° C. for the purpose of obtaining a culture medium enriched with radioactive cholesterol. After this incorporation, the culture medium was finalized by incorporation of DMEM (Dulbecco's Modified Eagle's medium) supplemented with 10% HS, 10% CS, 1 ng/ml bFGF (basic fibroblast growth factor), 2 mM glutamine and 50 μg/ml gentamicin. […]
Two hours after the beginning of the incubation in the presence of each cyclodextrin, 500 μl of medium were removed and the radioactive cholesterol captured by the cyclodextrin was assayed by means of a scintillation counter (Tri-carb 2100TR). The radioactivity was measured in disintegrations per minute (DPM). The capacity of each cyclodextrin to capture cellular cholesterol was then estimated by performing the following calculation: ((1.4 ml/0.5 ml)×DPM measured). […]

ABCG1 = assay: Expression of the ABCG1 transporter (real-time PCR) in endothelial cells treated with cyclodextrins; type: cell-based, bovine; conditions: 1 mM cyclodextrin, 24 hours, ABAEs, compared with control, FIG. 4
Protocol: as §1, §2, §3, §4

OC[C@H]1O[C@@H]2O[C@H]3[C@H](O)[C@@H](O)[C@@H](O[C@H]4[C@H](O)[C@@H](O)[C@@H](O[C@H]5[C@H](O)[C@@H](O)[C@@H](O[C@H]6[C@H](O)[C@@H](O)[C@@H](O[C@H]7[C@H](O)[C@@H](O)[C@@H](O[C@H]8[C@H](O)[C@@H](O)[C@@H](O[C@H]1[C@H](O)[C@H]2O)O[C@@H]8CO)O[C@@H]7CO)O[C@@H]6CO)O[C@@H]5CO)O[C@@H]4CO)O[C@@H]3CO [βCD, β-cyclodextrin]
ABCA1 receptor expression (mRNA) (ABCA1): strongly decreasing | Cholesterol efflux (radioactive cholesterol captured by the cyclodextrin) [1]: rapid and considerable efflux | ABCG1 receptor expression (mRNA) (ABCG1): strongly decreasing

From US10022392B2, “Compositions based on methyl cyclodextrins for the treatment and/or prevention of diseases by increasing the HDL cholesterol level” (ROQUETTE FRERES, priority 2013, dated 2018)
